The subject of the test is KRAS-mutant PDC complex spheroid viability. Briefly: Anticancer human tumor 186277-243-T-J2-PDC patient-derived colon adenocarcinoma cell line growth inhibition [KRAS2]. The conditions noted are these: for viability, T/C: stronger effect = lower value. The source says:
Multicellular complex tumor spheroid response to RAS pathway inhibitors in combination with a targeted agents in patient-derived cell lines with oncogenic KRAS variants from multiple cancer types
A high-throughput screen of multi-cell type tumor spheroids was designed to identify active combinations of targeted small molecules and KRAS pathway inhibitors. Complex spheroids include a stromal component modeled by human endothelial cells (HUVEC) and fibroblasts modeled by human mesenchymal stem cells (MSCs). The concentration ranges selected for each drug and investigational agent were based upon clinically achievable concentrations if the clinical Cmax of the agent was known.
Compounds. The drugs and investigational agents: BI-3406 (NSC825286), BAY-293 (NSC824723), batoprotafib (TNO155; NSC825523), sotorasib (AMG 510; NSC818433), MRTX1257 (NSC819558), elimusertib (BAY 1895344; NSC800525), molibresib (GSK525762; NSC774829), temuterkib (LY3214996; NSC803410), venetoclax (NSC766270), alisertib (NSC759677), olaparib (NSC753686), talazoparib (NSC767125), erdafitinib (NSC781556), ipatasertib (NSC767898), cabozantinib (NSC761068), nintedanib (NSC756659), abemaciclib (NSC768073), docetaxel (NSC628503), trametinib (NSC758246), and sapanisertib (NSC764658) were obtained from the National Cancer Institute (NCI) Developmental Therapeutics Program Chemical Repository. The FDA-approved anticancer drug set is available from the Developmental Therapeutics Program. […] The stock solutions were prepared in dimethyl sulfoxide (DMSO, Sigma-Aldrich, St. Louis, MO, cat. D2650) at 800-fold the tested concentration and stored at -70 degrees C prior to their use. All drugs and investigational agents were tested over a range starting from a high concentration at or near the clinical Cmax and decreasing in half-log increments. If the clinical Cmax for an agent had not been determined, the highest concentration tested was 10 microM.
Cell Culture. All cells were maintained in an incubator at 37 degrees C and 5% CO2 with 95% humidity. The PDC lines were cultured according to standard operating procedures established by the NCI PDMR (https://pdmr.cancer.gov/sops/default.htm). Briefly, all PDCs were thawed and cultured in Matrigel-coated flasks prepared with a working solution of 1X Ham's F-12 nutrient mix, without supplementation (Invitrogen, Waltham, MA, cat. 11765054), 100 U/mL penicillin-streptomycin (Invitrogen, cat. 15140122), and 2.5% Matrigel (Corning Inc., Corning, NY, cat. 354248) for the first three passages. All PDCs were cultured in complete DMEM/F-12 media containing advanced DMEM/F-12 (Invitrogen, cat. 12634028), 4.9% defined fetal bovine serum, heat inactivated (HyClone Laboratories Inc., Logan, UT, cat. SH30070.03HI), 389 ng/mL hydrocortisone (Sigma-Aldrich, cat. H4001), 9.7 ng/mL human EGF recombinant protein (Invitrogen, cat. PHG0313), 23.4 microg/mL adenine (Sigma-Aldrich, cat. A2786), 97.3 U/mL penicillin-streptomycin (Invitrogen, cat. 15140122), 1.9 mM L-glutamine (Invitrogen, cat. 25030081), and 9.7 microM Y-27632 dihydrochloride (Tocris Bioscience, Bristol, United Kingdom, cat. 1254). The PDCs were cultured in complete DMEM/F12 media without 9.7 microM Y-27632 dihydrochloride for at least two passages prior to the screen. The established cell line HOP-62 was cultured in RPMI 1640 medium, HEPES (Invitrogen, cat. 22400105) with 10% defined fetal bovine serum (HyClone Laboratories Inc., cat. SH30070.03) and 2 mM L-glutamine (Invitrogen, cat. 25030081). The pooled donor HUVEC were cultured in endothelial cell growth medium 2 (PromoCell, Heidelberg, Germany, cat. C-22011) and the hMSC were cultured in mesenchymal stem cell growth medium 2 (PromoCell, cat. C-28009). For all experiments, HUVEC and hMSC were used at passages </=5, while the malignant cell lines were used at passages </=15. […]

Setting [1] is: compound alone, run of 07/12/2021.
Setting [2] is: compound alone, run of 07/19/2021.
Setting [3] is: compound alone, run of 07/26/2021.
The mark [4] stands for this setting: curve of first compound, second compound 0.1 µM.
Setting [5] is: curve of first compound, second compound 0.316 µM.
[6] abbreviates: curve of first compound, second compound 1 µM.
The mark [7] stands for this setting: curve of first compound, second compound 3.16 µM.
Where [8] appears, read: curve of first compound, second compound 10 µM.
Where [9] appears, read: second compound 0.1 µM, first compound 0.01 µM.
Setting [10] is: second compound 0.1 µM, first compound 0.0316 µM.
Setting [11] is: second compound 0.1 µM, first compound 0.1 µM.
Setting [12] is: second compound 0.316 µM, first compound 0.01 µM.
[13] abbreviates: second compound 0.316 µM, first compound 0.0316 µM.
Setting [14] is: second compound 0.316 µM, first compound 0.1 µM.
The mark [15] stands for this setting: second compound 1 µM, first compound 0.01 µM.
Where [16] appears, read: second compound 1 µM, first compound 0.0316 µM.
[17] abbreviates: second compound 1 µM, first compound 0.1 µM.
Setting [18] is: second compound 3.16 µM, first compound 0.01 µM.
[19] abbreviates: second compound 3.16 µM, first compound 0.0316 µM.
[20] abbreviates: second compound 3.16 µM, first compound 0.1 µM.
[21] abbreviates: second compound 10 µM, first compound 0.01 µM.
Where [22] appears, read: second compound 10 µM, first compound 0.0316 µM.
Setting [23] is: second compound 10 µM, first compound 0.1 µM.

Where “and” joins values, the source holds several entries; their conditions need not be identical. Equal values may be shown once.

Experimental findings from PubChem BioAssay AID1963875 (Molecular Pharmacology Branch, DTP, NCI, 2024) are described below.
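For viability, T/C in this document: viability read after seven days of compound exposure; 100% = DMSO vehicle-treated spheroids so lower means less viable.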

By viability, T/C is commonly meant the result in the treated group divided by that in the control group, in per cent. Broadly, the IC50 is the concentration at which inhibition is half-maximal. Turning to `C=CC(=O)N1CCN(c2nc(=O)n(-c3c(C)ccnc3C(C)C)c3nc(-c4c(O)cccc4F)c(F)cc23)C(C)C1` (stereo not given), the viability, T/C is 98.1% [middle of 17 runs] (compound 0.1 µM) and 96.4% [middle of 17 runs] (compound 1 µM). The IC50 was > 10000 nM and 9920 nM and 2890 nM under setting [1]; > 10000 nM and 8520 nM under setting [2]; > 10000 nM under setting [3].

For `CNCc1ccccc1-c1csc(C(C)Nc2nc(C)nc3cc(OC)c(OC)cc23)c1` (stereo not given), the viability, T/C (compound 0.1 µM) was 100% [middle of 17 runs]; the viability, T/C (compound 0.316 µM) was 98.9% [middle of 17 runs]; the viability, T/C (compound 10 µM) was 0.16% [middle of 12 runs]. For the same compound, the IC50 under setting [1] is 5.56 µM [middle of 6 runs], the half-maximal inhibitory concentration (IC50) under setting [2] was 2.27 µM [middle of 5 runs] and the IC50 under setting [3] is 5.05 µM [middle of 6 runs].

As for `COC(=O)c1ccc2c(C(=Nc3ccc(N(C)C(=O)CN4CCN(C)CC4)cc3)c3ccccc3)c(O)[nH]c2c1`, the viability, T/C (compound 0.0316 µM) is 93.8% [middle of 5 runs]; the viability, T/C (compound 0.1 µM) was 104% [middle of 5 runs]; the viability, T/C (compound 0.316 µM) was 99.4% [middle of 5 runs]; the viability, T/C (compound 1 µM) is 107% [middle of 5 runs]; the viability, T/C (compound 10 µM) is 16% [middle of 5 runs]. For the same compound, the IC50 (curve of compound) is 3.62 µM [middle of 4 runs].

On to `COc1cc2nc(C)nc(NC(C)c3cc(N)cc(C(F)(F)F)c3)c2cc1OC1CCOC1` (stereo not given), for which the viability, T/C (compound 1 µM) is 101% [middle of 17 runs]. Moreover, the IC50 runs as follows: under setting [1], > 10000 nM; under setting [2], > 10000 nM.

In the case of `CC(=O)OC12COC1CC(O)C1(C)C(=O)C(O)C3=C(C)C(OC(=O)C(O)C(NC(=O)OC(C)(C)C)c4ccccc4)CC(O)(C(OC(=O)c4ccccc4)C21)C3(C)C` (stereo not given) + C=CC(=O)N1CCN(c2nc(=O)n(-c3c(C)ccnc3C(C)C)c3nc(-c4c(O)cccc4F)c(F)cc23)C(C)C1, the IC50 is < 10 nM under setting [4]; < 10 nM under setting [5]; < 10 nM under setting [6]; < 10 nM under setting [7]; < 10 nM under setting [8]. The viability, T/C runs as follows: under setting [9], 6.27%; under setting [10], 4.61%; under setting [11], 3.18%; (second compound 0.1 µM, first compound 0.316 µM) 3.25%; (second compound 0.1 µM, first compound 1 µM) 3.42%; (second compound 0.1 µM, first compound 3.16 µM) 3.34%. In addition, the viability, T/C under setting [12] is 6.24%; the viability, T/C under setting [13] is 4%; the viability, T/C under setting [14] was 3.67%; the viability, T/C (second compound 0.316 µM, first compound 0.316 µM) was 3.33%; the viability, T/C (second compound 0.316 µM, first compound 1 µM) was 3.62%; the viability, T/C (second compound 0.316 µM, first compound 3.16 µM) was 4%. The viability, T/C reads like this: under setting [15], 6.82%; under setting [16], 4.03%; under setting [17], 3.81%; (second compound 1 µM, first compound 0.316 µM) 3.93%; (second compound 1 µM, first compound 1 µM) 4%; (second compound 1 µM, first compound 3.16 µM) 4.32%. In addition, the viability, T/C is, setting by setting: under setting [18], 6.24%; under setting [19], 4.69%; under setting [20], 3.98%; (second compound 3.16 µM, first compound 0.316 µM) 4.34%; (second compound 3.16 µM, first compound 1 µM) 4.7%; (second compound 3.16 µM, first compound 3.16 µM) 4.34%. Moreover, the viability, T/C is 6.5% under setting [21]; 5.4% under setting [22]; 5.36% under setting [23]; 5.19% (second compound 10 µM, first compound 0.316 µM); 5.08% (second compound 10 µM, first compound 1 µM); 4.88% (second compound 10 µM, first compound 3.16 µM).

On to `CN(C)C/C=C/C(=O)Nc1cc2c(Nc3ccc(F)c(Cl)c3)ncnc2cc1O[C@H]1CCOC1` + C=CC(=O)N1CCN(c2nc(=O)n(-c3c(C)ccnc3C(C)C)c3nc(-c4c(O)cccc4F)c(F)cc23)C(C)C1, for which the IC50 runs as follows: under setting [4], > 100 nM; under setting [5], > 100 nM; under setting [6], > 100 nM; under setting [7], > 100 nM; under setting [8], 49.8 nM. Further, the viability, T/C by setting is: (second compound 0.1 µM, first compound 0.000316 µM) 105%; (second compound 0.1 µM, first compound 0.001 µM) 93.7%; (second compound 0.1 µM, first compound 0.00316 µM) 106%; under setting [9], 102%; under setting [10], 122%; under setting [11], 109%. In addition, the viability, T/C reads like this: (second compound 0.316 µM, first compound 0.000316 µM) 95.8%; (second compound 0.316 µM, first compound 0.001 µM) 97.7%; (second compound 0.316 µM, first compound 0.00316 µM) 99.5%; under setting [12], 98.4%; under setting [13], 107%; under setting [14], 112%. Also, the viability, T/C runs as follows: (second compound 1 µM, first compound 0.000316 µM) 91.2%; (second compound 1 µM, first compound 0.001 µM) 106%; (second compound 1 µM, first compound 0.00316 µM) 91.5%; under setting [15], 101%; under setting [16], 113%; under setting [17], 105%. The viability, T/C was 93.1% (second compound 3.16 µM, first compound 0.000316 µM); 103% (second compound 3.16 µM, first compound 0.001 µM); 100% (second compound 3.16 µM, first compound 0.00316 µM); 98.1% under setting [18]; 97.7% under setting [19]; 74.4% under setting [20]. Moreover, the viability, T/C is 79.9% (second compound 10 µM, first compound 0.000316 µM); 68.8% (second compound 10 µM, first compound 0.001 µM); 77.3% (second compound 10 µM, first compound 0.00316 µM); 66.3% under setting [21]; 55.2% under setting [22]; 40.6% under setting [23].
